Test results from patent US20250368627A1, “PYRAZOLESULFONAMIDES AS ANTITUMOR AGENTS” (Peloton Therapeutics, Inc., a fully owned subsidiary of …, priority 2019, published 2025).

Tests used:
[1] = test system: HCT116 human colorectal carcinoma cells; experiment: CellTiter-Glo Luminescent Cell Viability Assay; assay type: cell-based; conditions: HCT-116, 72 h, 3 days
Description: HCT116 human colorectal carcinoma cells were used in these experiments. HCT116 cells were obtained from ATCC. CellTiter-Glo® Luminescent Cell Viability Assay Reagent was obtained from Promega.
About 3,000 cells were seeded into 96-well plate with […] of media (DMEM supplemented with 10% FBS, 100 units penicillin, and […] streptomycin per mL) the day before the experiment. For compound treatment, the master plate was prepared as follows: 100× compound stocks were prepared in a 96-well plate by 1 to 3 serial dilutions of 0.5 mM DMSO stocks. Each master plate contained serial dilution of 8 compounds, including the control compound E7820. […] of 100× compound stock was added to each well of the assay plate to give final concentrations of […]. Each concentration was tested in triplicate. After 3 days, cell viability was determined using CellTiter-Glo Luminescent Cell Viability Assay Reagent following the manufacturer's recommended protocol. Briefly, […] of CellTiter-Glo reagent was added to each well of the assay plate and the contents were mixed for 3 minutes at 600 rpm on a shaker (Thermomixer R). The plate was immediately placed in a plate reader (Synergy 2) and the luminescence signal (0.5 second per well integration time) was determined. IC50 values were calculated using Dotmatics software.

[2] = target: T1, DDB1DB/DCAF15 and RBM39 R1R2 complex (Homo sapiens, UniProt Q14498+Q66K64); experiment: DCAF15 RBM39 Complex Formation Assay (FRET); assay type: binding; conditions: FRET ratio Em 665/Em 615, incubated overnight at 4° C.
T1 construct: Amino acids 150 to 331 of RBM39 were cloned into pGEX4T3; GST (from vector pGEX4T3); TEV cleavage site (N); made in house; host or cells: DDB1DB/His-DCAF15: baculovirus/Sf9 co-expression; RBM39 R1R2: E. coli (pGEX4T3)
From the text: LANCE Eu-W1024 Anti-6×His and SureLight Allophycocyanin-anti-FLAG antibodies were purchased from Perkin Elmer. Human DDB1DB and His-tagged DCAF15 were co-expressed in baculovirus/sf9 system. While full length DDB1 contains three 7-bladed propellers termed A, B, and C, DDB1DB has only propeller A (amino acids 1 to 395) and C (amino acids 709-1140). The His-tagged DCAF15 contains six histidine residues directly preceding the DCAF15 sequence without any linker. An RBM39 fragment containing RRM1 and RRM2 was expressed in E. coli. Amino acids 150 to 331 of RBM39 were cloned into pGEX4T3 with an N-terminal TEV cleavage site and a C-terminal FLAG tag.
A compound of the present disclosure in DMSO (2 μL) was transferred to a 384-well assay plate. Compound was added in 14 points, 3-fold serial dilution (1 μM to 0.6 pico molar) in DMSO. […] FRET assay buffer (25 mM HEPES, pH 7.5, 100 mM NaCl, […], 0.5 mM TCEP, 0.005% Tween-20, 0.2 nM Eu—W1024 Anti-6×His, 50 nM SureLight Allophycocyanin-anti-FLAG, 20 nM DDB1DB/DCAF15, 50 nM RBM39 R1R2) was added and the resulting solution was incubated overnight at 4° C. The plate was placed in a plate reader (Spark 10) with excitation at 1=340 nm and emissions monitored at 1=665 nm and 1=615 nm, and the FRET ratio (Em 665/Em 615) was determined. Low signal controls containing no compound and high signal controls containing 10 mM indisulam were measured for each plate.
EC50 values were calculated using Dotmatics template equation for 4-parameter fit. Results are expressed as % formation using the following equation: […]

T1 sequence (Q66K64 whole entry, the tested form may be a part): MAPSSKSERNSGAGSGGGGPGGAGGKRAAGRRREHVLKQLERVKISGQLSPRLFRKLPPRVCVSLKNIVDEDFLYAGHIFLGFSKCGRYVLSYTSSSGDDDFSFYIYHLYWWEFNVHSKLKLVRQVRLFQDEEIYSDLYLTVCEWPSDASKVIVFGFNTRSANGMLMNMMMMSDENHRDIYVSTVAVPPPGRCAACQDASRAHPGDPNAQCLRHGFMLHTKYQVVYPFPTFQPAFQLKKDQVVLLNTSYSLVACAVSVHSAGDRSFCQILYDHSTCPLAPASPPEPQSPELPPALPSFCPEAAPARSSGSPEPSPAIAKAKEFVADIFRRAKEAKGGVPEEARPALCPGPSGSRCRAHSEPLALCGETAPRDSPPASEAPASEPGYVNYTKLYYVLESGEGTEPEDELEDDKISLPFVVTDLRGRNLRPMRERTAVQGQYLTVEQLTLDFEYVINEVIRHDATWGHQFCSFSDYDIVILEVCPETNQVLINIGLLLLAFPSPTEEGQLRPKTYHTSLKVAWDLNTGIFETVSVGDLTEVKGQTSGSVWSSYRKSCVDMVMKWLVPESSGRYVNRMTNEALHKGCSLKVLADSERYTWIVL
T1 sequence (Q14498 150-331): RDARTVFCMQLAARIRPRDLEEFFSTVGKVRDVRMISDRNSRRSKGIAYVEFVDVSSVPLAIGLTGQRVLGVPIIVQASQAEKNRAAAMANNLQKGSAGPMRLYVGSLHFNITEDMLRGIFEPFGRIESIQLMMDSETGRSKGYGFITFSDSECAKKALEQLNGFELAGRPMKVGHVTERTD
T1 sequence (Q16531 with tags, fused parts or gaps DEL396-708 partner): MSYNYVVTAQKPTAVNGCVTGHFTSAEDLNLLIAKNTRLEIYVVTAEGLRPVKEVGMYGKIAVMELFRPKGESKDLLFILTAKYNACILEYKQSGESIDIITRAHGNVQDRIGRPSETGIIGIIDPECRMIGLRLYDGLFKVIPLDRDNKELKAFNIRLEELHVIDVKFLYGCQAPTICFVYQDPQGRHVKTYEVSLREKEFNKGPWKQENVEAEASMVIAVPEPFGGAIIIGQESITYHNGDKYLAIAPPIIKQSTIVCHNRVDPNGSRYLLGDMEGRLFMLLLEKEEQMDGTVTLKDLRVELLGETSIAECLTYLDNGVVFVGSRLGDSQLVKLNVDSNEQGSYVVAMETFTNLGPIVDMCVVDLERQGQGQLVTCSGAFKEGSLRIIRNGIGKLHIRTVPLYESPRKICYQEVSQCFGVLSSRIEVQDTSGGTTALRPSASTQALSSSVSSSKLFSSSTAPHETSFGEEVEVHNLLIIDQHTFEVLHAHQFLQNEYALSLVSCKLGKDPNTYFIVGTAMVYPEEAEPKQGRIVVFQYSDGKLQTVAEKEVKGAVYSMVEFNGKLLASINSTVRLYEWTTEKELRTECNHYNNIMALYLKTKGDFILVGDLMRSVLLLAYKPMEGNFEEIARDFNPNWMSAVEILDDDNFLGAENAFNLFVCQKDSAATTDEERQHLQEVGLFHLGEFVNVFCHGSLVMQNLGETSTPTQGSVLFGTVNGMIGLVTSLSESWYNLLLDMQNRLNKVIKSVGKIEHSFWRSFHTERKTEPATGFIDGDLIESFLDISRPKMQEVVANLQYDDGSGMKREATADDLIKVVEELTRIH

CC(C)(CO)n1cc(S(=O)(=O)Nc2cccc3c(C#N)c[nH]c23)cn1 [Compound 235, N-(3-cyano-1H-indol-7-yl)-1-(2-hydroxy-1,1-dimethyl-ethyl)pyrazole-4-sulfonamide]
EC50 [1]: 250 to 1000 nM | IC50 [2]: < 250 nM

CC(CO)n1cc(S(=O)(=O)Nc2ccc(Cl)c3c(Cl)c[nH]c23)cn1 (centres unmarked) [Compound 172, N-(3,4-dichloro-1H-indol-7-yl)-1-(2-hydroxy-1-methyl-ethyl)pyrazole-4-sulfonamide]
EC50 [1]: 250 to 1000 nM | IC50 [2]: < 250 nM

O=S(=O)(Nc1cccc2c(Cl)c[nH]c12)c1cnn(C2CNC2)c1 [Compound 18, 1-(azetidin-3-yl)-N-(3-chloro-1H-indol-7-yl)pyrazole-4-sulfonamide]
EC50 [1]: > 1000 nM | IC50 [2]: 250 to 1000 nM

N#CCn1cc(S(=O)(=O)Nc2cccc3c(Cl)c[nH]c23)cn1 [Compound 14, N-(3-chloro-1H-indol-7-yl)-1-(cyanomethyl)pyrazole-4-sulfonamide]
EC50 [1]: > 1000 nM | IC50 [2]: < 250 nM

N#Cc1c[nH]c2c(NS(=O)(=O)c3cnn(CF)c3N)cccc12 [Compound 312, 5-amino-N-(3-cyano-1H-indol-7-yl)-1-(fluoromethyl)pyrazole-4-sulfonamide]
EC50 [1]: > 1000 nM | IC50 [2]: < 250 nM

Cc1ccc(NS(=O)(=O)c2cnn(CC3CC3(F)F)c2)c2[nH]cc(C#N)c12 (centres unmarked) [Compound 79, N-(3-cyano-4-methyl-1H-indol-7-yl)-1-[(2,2-difluorocyclopropyl)methyl]pyrazole-4-sulfonamide]
EC50 [1]: 250 to 1000 nM | IC50 [2]: < 250 nM

Cn1cc(S(=O)(=O)Nc2ccc(C(F)(F)F)c3c(C#N)c[nH]c23)cn1 [Compound 105, N-[3-cyano-4-(trifluoromethyl)-1H-indol-7-yl]-1-methyl-pyrazole-4-sulfonamide]
EC50 [1]: 250 to 1000 nM | IC50 [2]: < 250 nM

N#Cc1c[nH]c2c(NS(=O)(=O)c3cnn([C@H](CO)CF)c3)ccc(Cl)c12 [Compound 311, N-(4-chloro-3-cyano-1H-indol-7-yl)-1-[(1R)-1-(fluoromethyl)-2-hydroxy-ethyl]pyrazole-4-sulfonamide]
EC50 [1]: 250 to 1000 nM | IC50 [2]: < 250 nM

CC(C)(CO)n1cc(S(=O)(=O)Nc2ccc(Cl)c3c(Cl)c[nH]c23)cn1 [Compound 170, N-(3,4-dichloro-1H-indol-7-yl)-1-(2-hydroxy-1,1-dimethyl-ethyl)pyrazole-4-sulfonamide]
EC50 [1]: 250 to 1000 nM | IC50 [2]: < 250 nM

CCn1cc(S(=O)(=O)Nc2ccc(F)c3c(C#N)c[nH]c23)cn1 [Compound 217, N-(3-cyano-4-fluoro-1H-indol-7-yl)-1-ethyl-pyrazole-4-sulfonamide]
EC50 [1]: 250 to 1000 nM | IC50 [2]: < 250 nM

CC(CC(C)(C)O)n1cc(S(=O)(=O)Nc2ccc(Cl)c3c(C#N)c[nH]c23)cn1 (centres unmarked) [Compound 243, N-(4-chloro-3-cyano-1H-indol-7-yl)-1-(3-hydroxy-1,3-dimethyl-butyl)pyrazole-4-sulfonamide]
EC50 [1]: 250 to 1000 nM | IC50 [2]: < 250 nM

O=S(=O)(Nc1cccc2c(Cl)c[nH]c12)c1cnn(CCO)c1 [Compound 13, N-(3-chloro-1H-indol-7-yl)-1-(2-hydroxyethyl)pyrazole-4-sulfonamide]
EC50 [1]: 250 to 1000 nM | IC50 [2]: < 250 nM

Cn1ncc(S(=O)(=O)Nc2ccc(Cl)c3c(C#N)c[nH]c23)c1N [Compound 180, 5-amino-N-(4-chloro-3-cyano-1H-indol-7-yl)-1-methyl-pyrazole-4-sulfonamide]
EC50 [1]: < 250 nM | IC50 [2]: < 250 nM

C[C@H](CF)n1cc(S(=O)(=O)Nc2ccc(F)c3c(C#N)c[nH]c23)cn1 [Compound 225, N-(3-cyano-4-fluoro-1H-indol-7-yl)-1-[(1R)-2-fluoro-1-methyl-ethyl]pyrazole-4-sulfonamide]
EC50 [1]: 250 to 1000 nM | IC50 [2]: < 250 nM

Cc1ccc(NS(=O)(=O)c2cnn([C@H](CO)CF)c2)c2[nH]cc(C#N)c12 [Compound 313, N-(3-cyano-4-methyl-1H-indol-7-yl)-1-[(1R)-1-(fluoromethyl)-2-hydroxy-ethyl]pyrazole-4-sulfonamide]
IC50 [2]: < 250 nM

Cn1cc(S(=O)(=O)Nc2ccc(F)c3cc[nH]c23)cn1 [Compound 55, N-(4-fluoro-1H-indol-7-yl)-1-methyl-pyrazole-4-sulfonamide]
IC50 [2]: > 1000 nM

Cc1ccc(NS(=O)(=O)c2cnn(C(C)(C)CO)c2N)c2[nH]cc(C#N)c12 [Compound 315, 5-amino-N-(3-cyano-4-methyl-1H-indol-7-yl)-1-(2-hydroxy-1,1-dimethyl-ethyl)pyrazole-4-sulfonamide]
IC50 [2]: < 250 nM

COCCN(c1cccc2c(Cl)c[nH]c12)S(=O)(=O)c1cnn(CCOC)c1 [Compound 50, N-(3-chloro-1H-indol-7-yl)-N,1-bis(2-methoxyethyl)pyrazole-4-sulfonamide]
IC50 [2]: > 1000 nM

CCn1cc(S(=O)(=O)Nc2cccc3c(Cl)c[nH]c23)cn1 [Compound 4, N-(3-chloro-1H-indol-7-yl)-1-ethyl-pyrazole-4-sulfonamide]
IC50 [2]: < 250 nM

O=S(=O)(c1cnn(CC2CC2)c1)N(CC1CC1)c1cccc2c(Cl)c[nH]c12 [Compound 48, N-(3-chloro-1H-indol-7-yl)-N,1-bis(cyclopropylmethyl)pyrazole-4-sulfonamide]
IC50 [2]: > 1000 nM

Cc1ccc(NS(=O)(=O)c2cnn([C@H](CO)CF)c2)c2[nH]nc(C#N)c12 [Compound 314, N-(3-cyano-4-methyl-1H-indazol-7-yl)-1-[(1R)-1-(fluoromethyl)-2-hydroxy-ethyl]pyrazole-4-sulfonamide]
IC50 [2]: < 250 nM

O=S1(=O)CC(n2cc(S(=O)(=O)Nc3cccc4c(Cl)c[nH]c34)cn2)C1 [Compound 58, N-(3-chloro-1H-indol-7-yl)-1-(1,1-dioxothietan-3-yl)pyrazole-4-sulfonamide]
IC50 [2]: > 1000 nM

N#Cc1n[nH]c2c(NS(=O)(=O)c3cnn([C@H](CO)CF)c3)ccc(Cl)c12 [Compound 310, N-(4-chloro-3-cyano-1H-indazol-7-yl)-1-[(1R)-1-(fluoromethyl)-2-hydroxy-ethyl]pyrazole-4-sulfonamide]
IC50 [2]: < 250 nM

Cc1ccc(NS(=O)(=O)c2cnn(C)c2C#N)c2[nH]cc(C#N)c12 [Compound 131, 5-cyano-N-(3-cyano-4-methyl-1H-indol-7-yl)-1-methyl-pyrazole-4-sulfonamide]
IC50 [2]: 250 to 1000 nM

O=S(=O)(Nc1cccc2c(Cl)c[nH]c12)c1cnn(C2CCOC2)c1 (centres unmarked) [Compound 8, N-(3-chloro-1H-indol-7-yl)-1-tetrahydrofuran-3-yl-pyrazole-4-sulfonamide]
IC50 [2]: < 250 nM

Cc1nn(C)cc1S(=O)(=O)Nc1cccc2c(Cl)c[nH]c12 [Compound 5, N-(3-chloro-1H-indol-7-yl)-1,3-dimethyl-pyrazole-4-sulfonamide]
IC50 [2]: 250 to 1000 nM

Cn1ncc(S(=O)(=O)Nc2ccc(Cl)c3c(C#N)c[nH]c23)c1C#N [Compound 132, N-(4-chloro-3-cyano-1H-indol-7-yl)-5-cyano-1-methyl-pyrazole-4-sulfonamide]
IC50 [2]: 250 to 1000 nM

O=S(=O)(Nc1cccc2c(Cl)c[nH]c12)c1cn[nH]c1 [Compound 10, N-(3-chloro-1H-indol-7-yl)-1H-pyrazole-4-sulfonamide]
IC50 [2]: < 250 nM

CC(C)(CO)n1ncc(S(=O)(=O)Nc2ccc(Cl)c3c(C#N)c[nH]c23)c1N [Compound 316, 5-amino-N-(4-chloro-3-cyano-1H-indol-7-yl)-1-(2-hydroxy-1,1-dimethyl-ethyl)pyrazole-4-sulfonamide]
IC50 [2]: < 250 nM

Cc1nn(C)c(C)c1S(=O)(=O)Nc1cccc2c(Cl)c[nH]c12 [Compound 2, N-(3-chloro-1H-indol-7-yl)-1,3,5-trimethyl-pyrazole-4-sulfonamide]
IC50 [2]: > 1000 nM
